Measured values taken from the supplement of paper PMC10307832.

Legend:
Assay in all cases: relative viability (nuclei count vs DMSO), 5 days (fraction); higher = more cells survive
[1] = compound: CCC1=CN=CN=C1N2CCN(CC2)CC3=NC4=C(N3)C=C(C=C4)C(F)(F)F + CCNC(=O)c1noc(-c2cc(C(C)C)c(O)cc2O)c1-c1ccc(CN2CCOCC2)cc1 [Luminespib] (partner 0.01 µM)
In short: (§1)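 For relative viability, nuclei counts in treated wells were divided by those in vehicle wells. Lung cancer cell lines had been pin-tool dosed in 1536-well plates the day after seeding and cultured for 5 days, then fixed and stained in one step (final 0.05% Triton X-100, 1% formaldehyde, 1 ug/ml Hoechst) and imaged at 4×. Doses were one drug alone or a fixed anchor-drug dose plus five library-drug doses (not always all listed) in √10 steps, and values are duplicate-plate medians.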

[2] = compound: CCn1c(-c2nonc2N)nc2cnc(Oc3cccc(NC(=O)c4ccc(OCCN5CCOCC5)cc4)c3)cc21 + Cc1cc(Nc2cc(N3CCN(C)CC3)nc(Sc3ccc(NC(=O)C4CC4)cc3)n2)n[nH]1 [Tozasertib] (partner 0.1 µM)
In short: as §1

[3] = compound: CCn1c(-c2nonc2N)nc2cnc(Oc3cccc(NC(=O)c4ccc(OCCN5CCOCC5)cc4)c3)cc21 + N=C(N)NC(=N)NCCc1ccccc1 [Phenformin] (partner 250 µM)
In short: as §1

[4] = compound: CCn1c(-c2nonc2N)nc2cnc(Oc3cccc(NC(=O)c4ccc(OCCN5CCOCC5)cc4)c3)cc21 + NC(=O)Nc1cc(-c2cccc(F)c2)sc1C(=O)N[C@H]1CCCNC1 [AZD7762] (partner 0.2 µM)
In short: as §1

Row | Cell Line | relative viability ([1]; first compound 0.04 µM) | relative viability ([1]; first compound 0.1265 µM) | relative viability ([1]; first compound 0.4 µM) | relative viability ([1]; first compound 1.265 µM) | relative viability ([1]; first compound 4 µM) | relative viability ([2]; first compound 0.04 µM) | relative viability ([2]; first compound 0.1265 µM) | relative viability ([2]; first compound 0.4 µM) | relative viability ([2]; first compound 1.265 µM) | relative viability ([2]; first compound 4 µM) | relative viability ([3]; first compound 0.04 µM) | relative viability ([3]; first compound 0.1265 µM) | relative viability ([3]; first compound 0.4 µM) | relative viability ([3]; first compound 1.265 µM) | relative viability ([3]; first compound 4 µM) | relative viability ([4]; first compound 0.04 µM) | relative viability ([4]; first compound 0.1265 µM) | relative viability ([4]; first compound 0.4 µM) | relative viability ([4]; first compound 1.265 µM) | relative viability ([4]; first compound 4 µM)
1 | LU99A | 0.247 | 0.227 | 0.309 | 0.22 | 0.229 | 0.293 | 0.295 | 0.295 | 0.233 | 0.199 | 0.614 | 0.706 | 0.623 | 0.683 | 0.505 | 0.439 | 0.436 | 0.241 | 0.296 | 0.252
2 | LXF-289 | 0.701 | 0.64 | 0.685 | 0.63 | 0.676 | 0.221 | 0.198 | 0.195 | 0.104 | 0.0834 | 0.554 | 0.526 | 0.361 | 0.334 | 0.341 | 1.19 | 1.23 | 0.638 | 0.506 | 0.224
3 | NCI-H23 | 0.223 | 0.219 | 0.21 | 0.191 | 0.213 | 0.364 | 0.34 | 0.333 | 0.291 | 0.322 | 0.879 | 0.798 | 0.662 | 0.61 | 0.532 | 0.453 | 0.277 | 0.229 | 0.115 | 0.151
4 | NCI-H322M | 0.988 | 0.846 | 0.808 | 0.805 | 0.918 | 0.481 | 0.466 | 0.459 | 0.366 | 0.403 | 1.12 | 0.982 | 0.632 | 0.557 | 0.579 | 0.587 | 0.556 | 0.561 | 0.496 | 0.445
5 | NCI-H358 | 0.288 | 0.263 | 0.339 | – | 0.194 | 0.0993 | 0.102 | 0.116 | 0.0599 | 0.0812 | 0.352 | 0.295 | 0.224 | 0.27 | 0.198 | 0.517 | 0.56 | 0.329 | 0.293 | 0.337
6 | NCI-H441 | 0.387 | 0.345 | 0.315 | 0.358 | 0.396 | 0.834 | 0.546 | – | 0.344 | 0.354 | 0.89 | 0.96 | – | 0.654 | 0.623 | 1.34 | 1.05 | 1.21 | 0.961 | 0.698
7 | NCI-H460 | 0.0311 | 0.0367 | 0.0386 | 0.0407 | 0.0253 | 0.563 | 0.601 | 0.311 | 0.036 | 0.0635 | 0.664 | 0.432 | 0.295 | 0.0979 | 0.0635 | 0.712 | 0.465 | 0.148 | 0.0565 | 0.0732
8 | NCI-H522 | 1.16 | 1.24 | 1.15 | 0.867 | 0.987 | 0.474 | 0.478 | 0.544 | 0.509 | 0.482 | 0.561 | 0.613 | 0.6 | 0.522 | 0.507 | 0.697 | 0.821 | 0.549 | 0.689 | 0.474
9 | NCI-H596 | 1.25 | 1.02 | 0.814 | – | 1.03 | 1.24 | 0.945 | 0.828 | 0.743 | 1.01 | 0.898 | 0.77 | 0.598 | 0.531 | 0.661 | 1.23 | 0.926 | 0.941 | 0.762 | 0.9
10 | NCI-H647 | 0.228 | 0.181 | 0.147 | 0.0988 | 0.152 | 0.338 | 0.267 | 0.29 | 0.146 | 0.0969 | 0.455 | 0.399 | 0.357 | 0.339 | 0.272 | 0.523 | 0.242 | 0.249 | 0.193 | 0.121
11 | NCI-H650 | 0.889 | 0.926 | 0.698 | 0.739 | 0.806 | 1.01 | 0.639 | 0.41 | 0.283 | 0.271 | 0.485 | 0.381 | 0.258 | 0.246 | 0.292 | 1.15 | 0.871 | 0.46 | 0.263 | 0.354
12 | NCI-H727 | 0.423 | 0.362 | 0.306 | – | 0.426 | 0.609 | 0.666 | 0.586 | 0.478 | 0.502 | 0.793 | 0.694 | 0.499 | 0.588 | 0.529 | – | 0.699 | 0.539 | 0.566 | 0.739
13 | NCI-H838 | 0.271 | 0.229 | 0.308 | 0.342 | 0.327 | 0.259 | 0.277 | 0.237 | 0.196 | 0.174 | 0.501 | 0.285 | 0.201 | 0.227 | 0.222 | 0.946 | 0.725 | 0.669 | 0.635 | 0.691
14 | NCI-H1355 | 0.707 | 0.641 | 0.689 | 0.61 | 0.753 | 0.654 | 0.652 | 0.582 | 0.563 | 0.569 | 0.53 | 0.426 | 0.261 | 0.24 | 0.227 | 0.676 | 0.684 | 0.369 | 0.313 | 0.217
15 | NCI-H1395 | 0.624 | 0.775 | 0.66 | 0.651 | 0.619 | 0.916 | 0.799 | 0.701 | 0.38 | 0.493 | 0.517 | 0.45 | 0.453 | 0.305 | 0.365 | 0.356 | 0.36 | 0.359 | 0.352 | 0.333
16 | NCI-H1437 | 1.07 | 0.995 | 0.964 | 1.01 | 0.907 | 0.432 | 0.382 | 0.383 | 0.315 | 0.314 | 0.321 | 0.312 | 0.239 | 0.295 | 0.288 | 1.13 | 1.08 | 0.718 | 0.625 | 0.642
17 | NCI-H1651 | 0.977 | 0.84 | 0.739 | 0.923 | 0.767 | 0.556 | 0.733 | 0.718 | 0.528 | 0.334 | 0.433 | 0.323 | 0.287 | 0.266 | 0.239 | 0.566 | 0.477 | 0.373 | 0.146 | 0.282
